From patent US9169492B2, “Compositions and methods for enhanced parvovirus transduction” (priority 2011, dated 2015)
Peptide text beside a SMILES is read from it. * marks the point of attachment. Cbz = O=C(OCc1ccccc1)*

Key:
FVIII−/− mice [1] = test: Canine FVIII activity (Coatest) in plasma of hemophilia A mice after portal vein AAV.cFVIII with or without proteasome inhibitor; assay type: in vivo, mouse; settings: for week at which FVIII activity became detectable: AAV2.cFVIII vector, drug rows = co-administered with this vector (FIG. 2C); for enhanced factor VIII expression on average: hemophilia mice
Experimental: (§1) To avoid anticipated antibody-mediated immune responses to the canine FVIII transgene, all FVIII^−/− mice received cyclophosphamide (Sigma Aldrich, St Louis, Mo.) injected intraperitoneally in 3 doses of 100 μg each on days −3, 0, and +3, as previously described^5.
(§2) Canine FVIII activity in mouse plasma was measured by the Coatest SP4 kit (Chromogenix, DiPharma, West Chester, Ohio) following the manufacture's instruction with modification. Normal canine plasma (regarded as 100 percent activity=1 IU/ml) was serially diluted into FVIII^−/− pooled mouse plasma to generate the standard curve. Neutralizing antibodies to canine FVIII in mouse were measured by the Bethesda assay using a START 4 Coagulation Analyzer as described^42 (Diagnostica Stago, Asnières, France). Human factor IX was measured based on one-stage factor IX activity assay (FIX-specific aPTT) as previously described, using a START 4 Coagulation Analyzer (Diagnostica Stago, Asnières, France)^43.
Studies were carried out to analyze the effect of combination therapy using large transgene cassette FVIII in hemophilic A mice using the same genetic background (C57B1/6). […] Virus was characterized for total particle number by qPCR, virion integrity by electron microscopy, capsid ratio by silver stain, and DNA genome size by alkaline gel electrophoresis.

Factor VIII−/− mice = test: Expression from codon-optimized AAV8 factor VIII vector with or without bortezomib; assay type: in vivo, mouse; settings: ssAAV8 3×10^10 vg/animal portal vein + bortezomib 0.5 mg/kg; persisted 12 weeks
Experimental: Factor VIII^−/− mice received 3×10^10 vg/animal single strand AAV serotype 8 vector encoding an oversized factor VIII transgene (n=5 mice per treatment group). The canine factor VIII cDNA sequence incorporated in the vector was engineered for optimal mammalian codon usage and GC nucleotide content. Mice received vector infusion to portal vein either alone or in combination with 0.5 mg/kg of proteasome inhibitor bortezomib (PI). While it has been established that codon-optimization increases expression from clotting factor VIII and IX vectors, it was not established whether PI could further augment the more efficient codon-optimized vectors.

[2] = Bortezomib dose tolerability in mice without AAV vector; assay type: in vivo
Experimental: The primary objective of these studies was to validate in small and large animal “combination therapy” using FDA approved drug bortezomib and AAV transgene vectors. The present studies describe the use of the proteasome inhibitor, bortezomib (also known as Velcade®), as this is the only proteasome inhibitor currently approved for clinical use by the FDA. Bortezomib, like most chemotherapy is dosed based on body surface area. For all large animal studies, the FDA-approved dose of (1.3 mg/m^2) was used. However preclinical toxicity data has established a safe bortezomib dose for mice of 0.5 mg per kilogram of body weight^23. […] Even though the dosing in mice was calculated on a per kilogram body weight basis vs. clinically recommended body surface area, the total dose used in mice is roughly equivalent to total dose used in dog studies described herein.

[3] = preclinical toxicity data (ref 23); cited from earlier work
FVIII−/− mice [4] = test: Liver ALT, AST and complete blood counts in vector-treated hemophilia A mice; assay type: in vivo, mouse; settings: mice receiving vector alone or in combination with bortezomib
From the text: In these mice, canine factor VIII peaked at 8 weeks, then began to decrease. […] Bortezomib co-administration improved initial and sustained canine factor VIII expression. […] To facilitate comparison of the proteasome inhibitor effect upon vectors generated from wtAAV-sized factor IX transgene and oversized factor VIII transgene, the same time points are graphed in FIGS. 2A and 2B (factor IX) and FIGS. 2C and 2D (factor VIII). Bortezomib treatment was associated with a proportionately greater augmentation of the oversize transgene expression than that of the smaller transgene.

FIX−/− mice = test: Human factor IX activity (one-stage FIX-specific aPTT) in hemophilia B mice after portal vein AAV.hFIX with or without bortezomib; assay type: in vivo, mouse; settings: 20 weeks
Experimental: as §1, §2
Studies were conducted to test the effect of combination therapy using bortezomib on in vivo correction of hemophilic animals. First, a vector carrying a genome approximately the same size as wild type AAV was used for the correction of hemophilia B in a mouse model. […]

hemophilia A dogs = test: Tolerability of vector and bortezomib in hemophilia A dogs; assay type: in vivo, dog; settings: no liver transaminase elevations, neurologic symptoms or changes in hematologic parameters
Experimental: Using identical AAV cFVIII vector cassettes, studies were carried out to determine whether proteasome inhibitor augmentation of the expression of large transgenes translates to the canine hemophilia A model. […] Four hemophilia A pups received the same AAV therapy and received a single I.V. dose of the proteasome inhibitor bortezomib at FDA-approved dose of (1.3 mg/m^2). […] Specifically, no liver transaminase elevations, neurologic symptoms or changes in hematologic parameters were observed.

293T cells = test: FACScan analysis of GFP expression in AAV2.GFP-transduced cells with or without bortezomib; assay type: cell-based; settings: AAV2.GFP transduction and bortezomib co-administration
Experimental: 293T cells were grown in Dulbecco's modified Eagle's medium (Mediatech, Herndon, Va.) supplemented with 9% fetal bovine serum and 1% penicillin/streptomycin solution and transduced at a multiplicity of infection of 1. At 3-5 days after transduction, cells were harvested, fixed in phosphate-buffered saline (PBS) containing 2% formaldehyde/0.2% glutaraldehyde, and analyzed by FACScan as previously described^40.

[5] = bortezomib co-administered with AAV2 cFVIII vector

Row | SMILES | week at which FVIII activity became detectable (FVIII−/− mice [1]) [week] | FVIII expression increased on average vs vector alone (FVIII−/− mice [1]; mouse, in vivo) [%] | effect on factor VIII expression (FVIII−/− mice [1]; mouse, in vivo) | expression of codon-optimized factor VIII (Factor VIII−/− mice) | tolerability ([2]; 0.5 mg/kg, without AAV vector) | tolerability ([2]; higher dose 1.0 mg/kg) | safe bortezomib dose for mice [3] | liver ALT, AST and complete blood counts (FVIII−/− mice [4]) | factor VIII activity maintained for a year (FVIII−/− mice [1]; [5]) | peak factor VIII activity at week 8 (FVIII−/− mice [1]; [5]) [IU/ml] | persistence of enhanced expression without further proteasome inhibitor treatment (FVIII−/− mice [1]; hemophilic mice) [year] | factor VIII expression higher on average vs AAV8.cFVIII vector alone (FVIII−/− mice [1]; mouse, in vivo) [%] | enhanced factor VIII expression on average (FVIII−/− mice [1]; single dose of bortezomib given with AAV2 factor VIII vector) [%] | enhanced factor VIII expression on average (FVIII−/− mice [1]; single dose of bortezomib given with AAV8 factor VIII vector) [%] | higher factor IX activity vs vector alone (FIX−/− mice; bortezomib single dose co-administered with AAV8 factor IX vector) [%] | increase in factor IX expressed vs vector alone (FIX−/− mice; bortezomib single dose with ssAAV2.FIX) [%] | tolerability (hemophilia A dogs) | percentage of cells expressing transgene (293T cells)
1 | CC(C)C[C@@H](C=O)NC(=O)[C@H](CC(C)C)NC(=O)[C@H](CC(C)C)NC(=O)OCc1ccccc1 [MG-132] (Cbz-Leu-Leu-Leu-aldehyde) | 2 | > 150 | slightly increased factor VIII expression was observed in the first month | – | – | – | – | – | – | – | – | – | – | – | – | – | – | –
2 | CC(C)C[C@H](NC(=O)[C@H](Cc1ccccc1)NC(=O)c1cnccn1)B(O)O [bortezomib] | 1 | > 550 | – | augmented expression | tolerated the proteasome inhibitors without apparent side effect or change in hematologic parameters | occasionally mice receiving this dose displayed decreased activity and feeding | 0.5 mg per kilogram of body weight | did not show any evidence of hepatic or hematologic toxicity | more than 3% | 0.11±0.06 | > 1 | 259 | ~600 | ~300 | ~24 | 83 | well tolerated | increase
